For 33 compounds, TGI and GI50 results are on record in PubChem BioAssay (NCI).

The structures appear in SMILES notation. Several values for one entry are separate records, joined by “and”; a condition that tells them apart may be missing. Identical values can stand only once.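 96-well plates; 48 h exposure; 5 concentrations. Endpoints by linear interpolation between flanking doses. Not reached: highest tested concentration assigned. Here, GI50 denotes the concentration required for 50% inhibition of growth. TGI is the concentration that stops growth completely.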 Where only a bound is given, the exact number is not on record here.

Test systems include KM20L2 colon; LXFL 529 NSCLC; XF 498 CNS; DMS 114 small cell lung; SNB-78 CNS; MDA-MB-231 breast; HS 578T breast; PC-3 prostate; NCI/ADR-RES ovarian.
What all share (experiment): NCI-60 cell line screen, 48 h

As for `CCCNCCCC(NC(C)=O)C(=O)NCc1ccccc1` (centres undefined), the TGI in the assay with KM20L2 colon, in the assay on LXFL 529 NSCLC, with XF 498 CNS, in the assay with DMS 114 small cell lung and in the assay with SNB-78 CNS was greater than 100 µM in each case.
With `COc1ccccc1/C=C1\CCC(CCN(C)C)(C2=CCCC2)C1=O` (centres undefined), the TGI with KM20L2 colon is 15.7 µM; with LXFL 529 NSCLC it was 29.6 µM; in the assay on XF 498 CNS, 31.7 µM; with DMS 114 small cell lung, 34.2 µM; in the assay on SNB-78 CNS, 65.9 µM.
For `C=CC1[C@H]2COC(C)(C)O[C@@H]2CC(=O)C1(C)C` (some centres undefined), the TGI with KM20L2 colon, in the assay with LXFL 529 NSCLC, in the assay with XF 498 CNS, in the assay on DMS 114 small cell lung and in the assay on SNB-78 CNS was greater than 100 µM each time.
With `COC[C@@H](N=CN1CCc2cc(OC)c(OC)cc2[C@@H]1C)C(C)(C)C`, the TGI in the assay with KM20L2 colon, in the assay on LXFL 529 NSCLC, with XF 498 CNS and in the assay on DMS 114 small cell lung was greater than 100 µM each time.
Take `O=Cc1ccccc1OCCOc1cc(OCCOc2ccccc2C=O)c(OCCOc2ccccc2C=O)cc1OCCOc1ccccc1C=O`: the TGI with KM20L2 colon is greater than 100 µM; in the assay on LXFL 529 NSCLC, greater than 100 µM; in the assay on XF 498 CNS, greater than 71.5 µM; in the assay on DMS 114 small cell lung, greater than 100 µM; with SNB-78 CNS, greater than 100 µM.
Take `Cn1nc(-c2ccccc2)c(C(=O)/C=C/c2ccc(F)cc2)c(N2CCCCC2)c1=O`: the TGI in the assay with KM20L2 colon came to 19.2 µM; with LXFL 529 NSCLC, 20.7 µM; in the assay on XF 498 CNS, 60.2 µM; in the assay with DMS 114 small cell lung, 17.1 µM.
For the compound `CC12N=NN(c3ccc([N+](=O)[O-])cc3)C1(O)c1ccccc1C2=O` (centres undefined), the TGI in the assay with KM20L2 colon, in the assay with LXFL 529 NSCLC, in the assay on XF 498 CNS and with DMS 114 small cell lung was greater than 100 µM each time.
Regarding `CC[C@@]1(O)C[C@H](OC2CC(N(C)C)C(OC3CC(O)C(OC4CCC(=O)C(C)O4)C(C)O3)C(C)O2)c2c(cc3c(c2O)C(=O)c2c(O)cccc2C3=O)[C@H]1C(=O)OC` (some centres undefined), the TGI with MDA-MB-231 breast was 198 nM; in the assay with HS 578T breast it was 135 nM; with KM20L2 colon, 0.249 µM and 1.07 µM; in the assay with LXFL 529 NSCLC, 1.14 µM; in the assay on XF 498 CNS, 0.165 µM and 0.0552 µM; in the assay on PC-3 prostate, 132 nM and 62 nM. The TGI in the assay with NCI/ADR-RES ovarian is 696 nM and 878 nM; with DMS 114 small cell lung, 0.154 µM and 0.173 µM. Besides, the GI50 in the assay on KM20L2 colon is 5.95 nM and 2.75 nM; with LXFL 529 NSCLC, 0.00422 µM; with XF 498 CNS, 6.81 nM and 28.2 nM and 23.6 nM.
Regarding `CN(C)c1ccc([O-])cc1.CN(C)c1ccc([O-])cc1.CN(C)c1ccc([O-])cc1.CN(C)c1ccc([O-])cc1.[Ti+4]`, the GI50 with KM20L2 colon is greater than 100000 nM; in the assay with LXFL 529 NSCLC it was 25.9 µM; in the assay with XF 498 CNS it was greater than 100000 nM; in the assay with DMS 114 small cell lung it was 50.7 µM; in the assay with SNB-78 CNS it was greater than 100 µM. The TGI in the assay on KM20L2 colon, in the assay on LXFL 529 NSCLC, in the assay on XF 498 CNS, in the assay with DMS 114 small cell lung and in the assay on SNB-78 CNS was greater than 100 µM in each case.
In the case of `COC1=CC(=O)C2C(C1=O)[C@@H]1c3ccccc3C[C@H]21` (some centres undefined), the TGI in the assay with XF 498 CNS and in the assay on SNB-78 CNS was greater than 100 µM throughout.
Take `CC(=O)Nc1ccc(C(=O)NN2C(=O)C(Cl)C2c2ccc([N+](=O)[O-])cc2)cc1` (centres undefined): the TGI in the assay with KM20L2 colon, with LXFL 529 NSCLC, with XF 498 CNS and in the assay with SNB-78 CNS was greater than 100 µM each time.
Regarding `COc1ccccc1N=C(N)N/N=C/c1c[nH]c2ccccc12`, the TGI was determined as 26.1 µM with KM20L2 colon; 13.1 µM with LXFL 529 NSCLC; 16.9 µM in the assay with XF 498 CNS; 15.5 µM in the assay with DMS 114 small cell lung; 25.1 µM with SNB-78 CNS.
For `CC(C)=CCC/C(C)=C/CC/C(C)=C/Cc1c(O)c2ccccc2oc1=O`, the TGI in the assay with KM20L2 colon, in the assay on LXFL 529 NSCLC, in the assay on DMS 114 small cell lung and in the assay with SNB-78 CNS was greater than 100 µM in each case.
`CC1OC(OCC2OC(Oc3c(-c4ccc(O)cc4)oc4cc(O)cc(O)c4c3=O)C(OC3OC(C)C(O)C(O)C3O)C(O)C2O)C(O)C(O)C1O` (centres undefined): the TGI was greater than 100 µM in the assay on KM20L2 colon; greater than 100 µM with LXFL 529 NSCLC; greater than 100 µM in the assay on XF 498 CNS; greater than 77.4 µM with DMS 114 small cell lung; greater than 100 µM with SNB-78 CNS.
As to `O=C(Nc1cccc([N+](=O)[O-])c1)C(=O)C(C(=O)c1ccccc1-c1ccccc1)C1OC(=O)c2ccccc21` (centres undefined), the TGI was 53.7 µM in the assay with KM20L2 colon; 27.4 µM in the assay on LXFL 529 NSCLC; 41.4 µM in the assay with XF 498 CNS; 33.1 µM in the assay with DMS 114 small cell lung; greater than 100 µM in the assay on SNB-78 CNS.
As to `CCO/C=C/C(C)C1(C(=O)OCC)CCCCC1=O` (centres undefined), the TGI in the assay with KM20L2 colon, in the assay with LXFL 529 NSCLC, with XF 498 CNS, in the assay on DMS 114 small cell lung and with SNB-78 CNS was greater than 100 µM each time.
For `O=C1C=CC=CC2CC=C[C@@H](O)C12` (some centres undefined), the TGI in the assay on KM20L2 colon was 56 µM; in the assay with LXFL 529 NSCLC it was 36.2 µM; in the assay on DMS 114 small cell lung, 38.7 µM; in the assay on SNB-78 CNS, greater than 100 µM.
As to `Nc1nc2c(c(=O)[nH]1)NC(CO)CN2` (centres undefined), the TGI in the assay on XF 498 CNS and in the assay on DMS 114 small cell lung was greater than 100 µM in each case.
On to `CC1CC2CC(=O)CC3(C1)C2CCCN3CCCO` (centres undefined), for which the TGI with LXFL 529 NSCLC, in the assay on XF 498 CNS, in the assay with DMS 114 small cell lung and in the assay on SNB-78 CNS was greater than 100 µM in each case.
For `CC1(C)C(=O)C(C)(C)C1=NN`, the TGI in the assay on KM20L2 colon, in the assay with LXFL 529 NSCLC, in the assay on XF 498 CNS, in the assay with DMS 114 small cell lung and in the assay with SNB-78 CNS was greater than 100 µM throughout.
`Clc1ccc(Cc2nc3ccccc3s2)c(Cl)c1`: the TGI in the assay on KM20L2 colon turned out to be 52 µM; in the assay with LXFL 529 NSCLC, 31.1 µM; in the assay with XF 498 CNS, 26.5 µM; in the assay with DMS 114 small cell lung, 36.5 µM.
In the same order, the values of `O=C(/C=C/c1ccccc1)CC1OC(=O)c2ccccc21` (centres undefined) are greater than 100 µM, greater than 100 µM, greater than 100 µM and greater than 100 µM.
As for `O=C(O)COc1ccc(O)c2c1C(=O)CCCC2=O`, the TGI in the assay on KM20L2 colon, in the assay on LXFL 529 NSCLC, in the assay with XF 498 CNS, with DMS 114 small cell lung and with SNB-78 CNS was greater than 100 µM in each case.
Take `CC(=O)N[C@@H]1C(O)CN2C(=O)C(=O)O[C@H](C(O)CO)[C@@H]12` (some centres undefined): the TGI in the assay on KM20L2 colon, in the assay on LXFL 529 NSCLC, in the assay on XF 498 CNS, in the assay on DMS 114 small cell lung and with SNB-78 CNS was greater than 100 µM each time.
On to `COc1cc(/C=C\c2ccccc2)cc(OC)c1OC`, for which the TGI was 3.31 µM with KM20L2 colon; greater than 68.1 µM in the assay on LXFL 529 NSCLC; 23.7 µM with XF 498 CNS; greater than 28 µM in the assay with DMS 114 small cell lung; greater than 89.8 µM in the assay on SNB-78 CNS.
In the same order, the values of `CCc1cccc(C(C)C)c1NC(=O)C(=O)CC(=O)c1c(C)n([O-])c2ccccc2[n+]1=O` are greater than 100 µM, greater than 100 µM, greater than 100 µM, greater than 100 µM and greater than 100 µM.
In the case of `CC1CCP(=O)(c2ccccc2)c2ccccc21` (centres undefined), the TGI in the assay on KM20L2 colon, in the assay with LXFL 529 NSCLC, with DMS 114 small cell lung and in the assay with SNB-78 CNS was greater than 100 µM each time.
On to `Oc1cc(O)c(Oc2cccc(O)c2O)c(O)c1`, for which the TGI with LXFL 529 NSCLC, in the assay with XF 498 CNS, with DMS 114 small cell lung and in the assay with SNB-78 CNS was greater than 100 µM in each case.
With `O=C(c1ccccc1)C1CCCCN1C(=O)c1ccccc1` (centres undefined), the TGI in the assay on KM20L2 colon, in the assay on LXFL 529 NSCLC, in the assay on DMS 114 small cell lung and in the assay on SNB-78 CNS was greater than 100 µM throughout.
With `OCCCOC(c1ccccc1)(c1ccccc1)c1ccccc1`, the TGI with KM20L2 colon, with LXFL 529 NSCLC, in the assay on XF 498 CNS, in the assay on DMS 114 small cell lung and with SNB-78 CNS was greater than 100 µM in each case.
Consider `NC1CCCCC1.[O]=[Ge].[O]=[Ge].[O]=[Ge][OH].[O]=[Ge][OH]`, for which the TGI in the assay on KM20L2 colon, in the assay on LXFL 529 NSCLC, in the assay with XF 498 CNS, in the assay on DMS 114 small cell lung and in the assay on SNB-78 CNS was greater than 100 µM throughout. Also, the GI50 was greater than 100 µM in the assay on LXFL 529 NSCLC and greater than 100000 nM with XF 498 CNS.
On to `CCCCC1CC(c2cccc([N+](=O)[O-])c2)=NO1` (centres undefined), for which the TGI in the assay on KM20L2 colon, in the assay with LXFL 529 NSCLC, in the assay on DMS 114 small cell lung and in the assay with SNB-78 CNS was greater than 100 µM in each case.
Take `CC(C)C1(O)C(c2ccccc2)=C(c2ccccc2)C(c2ccccc2)=C1c1ccccc1`: the TGI in the assay on KM20L2 colon is 23.3 µM; with LXFL 529 NSCLC, 51.9 µM; with XF 498 CNS, 14.2 µM; with DMS 114 small cell lung, 11.8 µM; in the assay with SNB-78 CNS, greater than 100 µM.
